Data as given in PubChem BioAssay (NCI).
“And” between values parts separate entries of the source, which are not always exact repeats. Equal values may be shown once.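 Protocol summary: plate cells (96-well), add compound at 5 concentrations, incubate 48 h, interpolate endpoints linearly. The concentration for 50% growth inhibition is given as GI50. Definition used: TGI = concentration required for complete inhibition of growth.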 Where a SMILES comes first, the peptide text is derived from it. The star is where a group is joined. Fmoc = O=C(OCC1c2ccccc2-c2ccccc21)*; Boc = CC(C)(C)OC(=O)*; OtBu = CC(C)(C)O*

How the values were obtained:
Assay in all cases: NCI-60 cell line screen, 48 h
[1] = test system: SN12C renal
[2] = test system: MOLT-4 leukemia
[3] = test system: HOP-92 NSCLC
[4] = test system: A498 renal
[5] = test system: DU-145 prostate
[6] = test system: UACC-62 melanoma
[7] = test system: MDA-MB-231 breast
[8] = test system: OVCAR-5 ovarian
[9] = test system: HL-60(TB) leukemia
[10] = test system: LOX IMVI melanoma
[11] = test system: RXF 393 renal
[12] = test system: SK-OV-3 ovarian
[13] = test system: MDA-N
[14] = test system: IGROV1 ovarian
[15] = test system: RPMI-8226 leukemia
[16] = test system: U251 CNS
[17] = test system: NCI-H226 lung
[18] = test system: OVCAR-3 ovarian
[19] = test system: EKVX NSCLC
[20] = test system: OVCAR-8 ovarian
[21] = test system: MALME-3M melanoma
[22] = test system: HCT-15 colon
[23] = test system: T-47D breast
[24] = test system: SK-MEL-28 melanoma
[25] = test system: M14 melanoma
[26] = test system: UO-31 renal
[27] = test system: SNB-75 CNS
[28] = test system: PC-3 prostate
[29] = test system: ACHN renal
[30] = test system: HS 578T breast
[31] = test system: SR leukemia
[32] = test system: SF-268 CNS
[33] = test system: KM12 colon
[34] = test system: CAKI-1 renal
[35] = test system: K-562 leukemia
[36] = test system: SF-539 CNS
[37] = test system: SW-620 colon
[38] = test system: COLO 205 colon
[39] = test system: SNB-19 CNS
[40] = test system: NCI-H522 lung
[41] = test system: NCI-H23 lung
[42] = test system: MCF7 breast
[43] = test system: TK-10 renal
[44] = test system: HCT-116 colon
[45] = test system: BT-549 breast
[46] = test system: HOP-62 NSCLC
[47] = test system: NCI/ADR-RES ovarian
[48] = test system: A549 NSCLC
[49] = test system: SK-MEL-5 melanoma
[50] = test system: HT29 colon
[51] = test system: NCI-H460 lung
[52] = test system: MDA-MB-435
[53] = test system: OVCAR-4 ovarian
[54] = test system: 786-0 renal
[55] = test system: SK-MEL-2 melanoma
[56] = test system: SF-295 CNS
[57] = test system: CCRF-CEM leukemia
[58] = test system: UACC-257 melanoma
[59] = test system: HCC-2998 colon

Cc1ccc(C2(C)CC/C(=N/N=C3/CCC(C)(c4ccc(C)c(C)c4)c4cc(C)c(C)cc43)c3cc(C)c(C)cc32)cc1C (configuration not stated)
TGI [1]: > 100 µM
TGI [2]: > 100 µM
TGI [3]: > 100 µM
TGI [4]: > 100 µM
TGI [5]: > 100 µM
TGI [6]: > 100 µM
TGI [7]: > 100 µM
TGI [8]: > 100 µM
TGI [9]: > 100 µM
TGI [10]: > 100 µM
TGI [11]: > 100 µM
TGI [12]: > 100 µM
TGI [13]: > 100 µM
TGI [14]: > 100 µM
TGI [15]: > 100 µM
TGI [16]: > 100 µM
TGI [17]: > 100 µM
TGI [18]: > 100 µM
TGI [19]: > 100 µM
TGI [20]: > 100 µM
TGI [21]: > 100 µM
TGI [22]: > 100 µM
TGI [23]: > 100 µM
TGI [24]: > 100 µM
TGI [25]: > 100 µM
TGI [26]: > 100 µM
TGI [27]: > 100 µM
TGI [28]: > 100 µM
TGI [29]: > 100 µM
TGI [30]: > 100 µM
TGI [31]: > 100 µM
TGI [32]: > 100 µM
TGI [33]: > 100 µM
TGI [34]: > 100 µM
TGI [35]: > 100 µM
TGI [36]: > 100 µM
TGI [37]: > 100 µM
TGI [38]: > 100 µM
TGI [39]: > 100 µM
TGI [40]: > 100 µM
TGI [41]: > 100 µM
TGI [42]: > 100 µM
TGI [43]: > 100 µM
TGI [44]: > 100 µM
TGI [45]: > 100 µM
TGI [46]: > 100 µM
TGI [47]: > 100 µM
TGI [48]: > 100 µM
TGI [49]: > 100 µM
TGI [50]: > 100 µM
TGI [51]: > 100 µM
TGI [52]: > 100 µM
TGI [53]: > 100 µM
TGI [54]: > 100 µM
TGI [55]: > 100 µM
TGI [56]: > 100 µM

Cc1cn(C2CC(Br)C(COC(c3ccccc3)(c3ccccc3)c3ccccc3)O2)c(=O)[nH]c1=O (configuration not stated)
TGI [1]: 27.8 µM
TGI [2]: 28.8 µM
TGI [3]: 24.6 µM
TGI [4]: 29.9 µM
TGI [5]: 27.7 µM
TGI [6]: 24.8 µM
TGI [7]: 33.5 µM
TGI [8]: 30.4 µM
TGI [9]: > 100 µM
TGI [10]: 24.4 µM
TGI [11]: 23.5 µM
TGI [13]: 28.2 µM
TGI [14]: 27.9 µM
TGI [15]: 20.6 µM
TGI [16]: 24.9 µM
TGI [17]: 34.2 µM
TGI [18]: 25.2 µM
TGI [19]: 28.9 µM
TGI [20]: 23.2 µM
TGI [21]: 32.4 µM
TGI [23]: 26.3 µM
TGI [24]: 30.3 µM
TGI [25]: 26.7 µM
TGI [26]: 19.5 µM
TGI [27]: 24.3 µM
TGI [28]: 17.7 µM
TGI [29]: 26.8 µM
TGI [57]: 24.1 µM
TGI [30]: 32.8 µM
TGI [31]: 23.1 µM
TGI [32]: 28.4 µM
TGI [33]: 19.4 µM
TGI [34]: 29.2 µM
TGI [35]: > 100 µM
TGI [36]: 31.6 µM
TGI [37]: 28.5 µM
TGI [38]: 27.1 µM
TGI [39]: 29.9 µM
TGI [40]: 19.8 µM
TGI [41]: 20 µM
TGI [42]: 22.4 µM
TGI [43]: 28 µM
TGI [44]: 20.5 µM
TGI [45]: 24.4 µM
TGI [58]: 29.8 µM
TGI [46]: 31 µM
TGI [47]: 28.9 µM
TGI [48]: 23.8 µM
TGI [49]: 25.5 µM
TGI [50]: 23.4 µM
TGI [52]: 30.1 µM
TGI [53]: 25.8 µM
TGI [54]: 27.4 µM
TGI [55]: 28.7 µM
TGI [56]: 21.7 µM

NS(=O)(=O)c1ccc(N=Nc2ncccc2O)cc1
TGI [1]: > 100 µM
TGI [2]: 87.8 µM
TGI [3]: > 100 µM
TGI [4]: > 100 µM
TGI [5]: > 100 µM
TGI [6]: > 100 µM
TGI [7]: > 100 µM
TGI [8]: > 100 µM
TGI [9]: > 100 µM
TGI [10]: > 100 µM
TGI [11]: > 100 µM
TGI [12]: > 100 µM
TGI [13]: > 100 µM
TGI [14]: > 100 µM
TGI [15]: > 100 µM
TGI [16]: > 100 µM
TGI [17]: > 100 µM
TGI [18]: > 100 µM
TGI [19]: > 100 µM
TGI [20]: > 100 µM
TGI [21]: > 100 µM
TGI [22]: > 100 µM
TGI [23]: > 100 µM
TGI [24]: > 100 µM
TGI [25]: > 100 µM
TGI [26]: > 100 µM
TGI [27]: > 100 µM
TGI [28]: > 100 µM
TGI [29]: > 100 µM
TGI [30]: > 100 µM
TGI [31]: 71.9 µM
TGI [32]: > 100 µM
TGI [33]: > 100 µM
TGI [34]: > 100 µM
TGI [35]: > 100 µM
TGI [36]: > 100 µM
TGI [37]: > 100 µM
TGI [38]: > 100 µM
TGI [39]: > 100 µM
TGI [40]: > 100 µM
TGI [41]: > 100 µM
TGI [42]: > 100 µM
TGI [43]: > 100 µM
TGI [44]: > 100 µM
TGI [45]: > 100 µM
TGI [58]: > 100 µM
TGI [46]: > 100 µM
TGI [47]: > 100 µM
TGI [48]: > 100 µM
TGI [49]: > 100 µM
TGI [50]: > 100 µM
TGI [51]: > 100 µM
TGI [52]: > 100 µM
TGI [53]: > 100 µM
TGI [54]: > 100 µM
TGI [55]: > 100 µM
TGI [56]: > 100 µM

CC(C)(C)OC(=O)CCC(NC(=O)OCC1c2ccccc2-c2ccccc21)C(=O)NC(Cc1c[nH]c2ccccc12)C(=O)NC(CCCCNC(=O)OC(C)(C)C)C(=O)N1CCCC1C(=O)NCC(N)=O (configuration not stated) (Fmoc-E(OtBu)WK(Boc)PG-NH2; configuration not given here)
GI50 [1]: 18.3 µM and 67.4 µM
TGI [1]: 32.2 µM and > 100 µM
TGI [2]: 61.7 µM and 81.7 µM
TGI [3]: 31.4 µM and 35.7 µM
GI50 [5]: 16.1 µM and > 100 µM
TGI [5]: 29.6 µM and > 100 µM
TGI [6]: 28.2 µM and 39.9 µM
TGI [7]: 25.2 µM and 28.9 µM
GI50 [8]: 45.6 µM and > 100 µM
TGI [8]: > 100 µM
GI50 [9]: 3.8 µM and 33.5 µM
TGI [9]: > 100 µM
TGI [10]: 24.5 µM and 44.7 µM
TGI [11]: 28.3 µM and 50.4 µM
TGI [12]: > 100 µM and 93.9 µM
TGI [13]: 31.6 µM and > 100 µM
TGI [14]: 29.5 µM and > 100 µM
TGI [15]: 35.6 µM and > 100 µM
TGI [16]: 31.1 µM and 31 µM
GI50 [17]: 15.3 µM and 78.8 µM
TGI [17]: 32.5 µM and > 100 µM
TGI [18]: 37.4 µM and 51 µM
GI50 [19]: 17.9 µM and > 100 µM
TGI [19]: 34.8 µM and > 100 µM
TGI [20]: 33.4 µM and > 100 µM
TGI [21]: 33.9 µM and 78.9 µM
GI50 [22]: 12.5 µM and 73.9 µM
TGI [22]: 24.9 µM and > 100 µM
TGI [23]: > 100 µM
TGI [24]: > 100 µM
TGI [25]: 90.5 µM and > 100 µM
GI50 [26]: 3.85 µM and 14.4 µM
TGI [26]: 14.7 µM and 28.1 µM
TGI [27]: 52.1 µM and 29.9 µM
GI50 [28]: 16.4 µM and > 100 µM
TGI [28]: 29.9 µM and > 100 µM
TGI [29]: 30 µM and 35 µM
GI50 [57]: 67.3 µM and 31.5 µM
TGI [57]: > 100 µM and 73.7 µM
TGI [30]: 59.3 µM and 76.1 µM
TGI [31]: 52.7 µM and > 100 µM
GI50 [32]: 21.5 µM and 44.7 µM
TGI [32]: 37.2 µM and > 100 µM
GI50 [33]: 16.2 µM and 35.9 µM
TGI [33]: 33.1 µM and > 100 µM
TGI [35]: > 100 µM
TGI [36]: > 100 µM
GI50 [37]: 19 µM and 46.9 µM
TGI [37]: 33.6 µM and > 100 µM
GI50 [38]: 17.1 µM and 41.9 µM
TGI [38]: 32.7 µM and > 100 µM
TGI [39]: 72.9 µM and 40.6 µM
TGI [40]: 4.16 µM
TGI [59]: > 100 µM
GI50 [41]: 14.2 µM and 32.7 µM
TGI [41]: 27.2 µM and > 100 µM
TGI [42]: > 100 µM
GI50 [43]: 36.5 µM and > 100 µM
TGI [43]: > 100 µM
GI50 [44]: 18.3 µM and 48.1 µM
TGI [44]: 32.2 µM and > 100 µM
TGI [45]: 29.5 µM and 38.3 µM
GI50 [58]: 40.4 µM and 94.9 µM
TGI [58]: > 100 µM
GI50 [46]: 18 µM and 42.2 µM
TGI [46]: 31.8 µM and > 100 µM
GI50 [47]: 16.9 µM and 68.5 µM
TGI [47]: 30.6 µM and > 100 µM
GI50 [48]: 17.6 µM and > 100 µM
TGI [48]: 31.5 µM and > 100 µM
TGI [49]: 29.7 µM and > 100 µM
TGI [50]: > 100 µM
TGI [51]: 30.4 µM and 68.9 µM
GI50 [52]: 18 µM and 42.7 µM
TGI [52]: 31.9 µM and > 100 µM
TGI [53]: 25.5 µM and 31.2 µM
TGI [54]: 31.3 µM and 34.9 µM
TGI [55]: 39.2 µM and 33.5 µM
TGI [56]: > 100 µM
